Assays:
PiZ mice = test: Pulmonary fibrosis in PiZ mice (Sirius Red staining with quantitative morphometry); assay type: in vivo, mouse; details: 3-month-old PiZ mice, 200 mg/kg/day, 5 days per week for 3 weeks
Procedure: Experiments were performed to determine if CBZ can mediate a decrease in lung fibrosis in the PiZ mouse in vivo. 3-month-old PiZ mice were treated 5 days per week for 3 weeks with diluent DMSO or CBZ 200 mg/kg/day (n=3-8 mice per group). In this series of experiments lung fibrosis was assayed by Sirius Red staining with quantitative morphometry.

[1] = test system: BiP in the HTO/Z cell line; test: Steady state levels of BiP in the HTO/Z cell line (immunoblot); assay type: cell-based, human; details: FIG. 1D
From the text: (§1) Cell Lines The human epidermal HeLa cell line with doxycycline-regulated expression of ATZ (HTO/Z) has been described previously (1). HTO/M and HTO/Saar are HeLa cell lines with doxycycline-regulated expression of wild type AT and the AT Saar variant, respectively (1). A murine embryonic fibroblast cell line (MEF) with targeted disruption of Atg5 (2) was engineered for stable expression of ATZ using the previously described pRc/RSV-ATZ expression plasmid (3). A wild type MEF cell line was also engineered for stable expression of ATZ in the same way to serve as control. For experiments with CBZ, the inducible cell lines were cultured in the absence of doxycycline for at least 4 weeks for maximal expression of AT. The cells were then subcultured into separate monolayers in fresh complete growth medium and incubated for 48 hours in the absence or presence of CBZ or rapamycin (RAP). CBZ or RAP were added to the growth medium. The duration of incubation with CBZ was determined to be optimal at 48 hours based on experiments in which the duration was varied from 12 to 72 hours. Doses of CBZ were based on previous studies of its effects in cell lines (5,6). […]
(§2) For immunoblot analysis to detect AT, GAPDH or LC3, cells were lysed in 50 mM Tris-HCl, 150 mM NaCl, 1% NP-40, pH 8.0. Protein levels were quantified using the BCA protein assay (Pierce Biotechnology, Rockford, Ill.). […]

[2] = test system: ATZ in the HTO/Z cell line; test: Pulse labeling and pulse-chase labeling of ATZ in the HTO/Z line; assay type: cell-based, human
Procedure: Radioimmunoprecipitation, SDS-PAGE and Immunoblot Analysis Biosynthetic labeling, pulse-chase labeling, immunoprecipitation and SDS-PAGE/fluorography for AT followed previously published protocols (1). […] For the pulse labeling experiments, HTO/Z cells were incubated for 48 hours in the absence or presence of CBZ in several different concentrations and then subjected to labeling for 30 mins. The cell lysates were then examined by immunoprecipitation and the immunoprecipitates analyzed by SDS-PAGE/fluorography. For the pulse-chase experiments, HTO/Z cells were incubated for 48 hours in the absence of presence of CBZ 30 μM and then pulse labeled for 30 mins. The cells were then washed and incubated in growth medium without tracer for several different time intervals to constitute the chase. CBZ 30 μM was included during the pulse and chase periods. The extracellular fluid and cell lysate samples were subjected to immunoprecipitation and the immunoprecipitates analyzed by SDS-PAGE/fluorography. All fluorograms were subjected to densitometry. The relative densitometric value of T0 is set at 100% and the remainder of the data set expressed as % of this control. The data are shown as mean+/−SE and the mean value at each time point is shown at the bottom of the figure.

[3] = test system: smooth muscle actin, collagen IA and TGFβ mRNA; test: Stellate cell activation markers in liver of PiZ mice by Q-PCR; assay type: in vivo, mouse
Procedure: Quantitative PCR (Q-PCR) Levels of mRNA from smooth muscle actin, collagen IA and TGFβ in liver of PiZ mice were determined by Q-PCR using primers from ABI and previous described conditions (19).

[4] = test system: wild type AT in the HTO/M cell line; test: Steady state levels of wild type AT in the HTO/M cell line (immunoblot); assay type: cell-based, human; details: FIG. 1D
From the text: as §1, §2

NC(=O)N1c2ccccc2C=Cc2ccccc21 [CBZ, 5H-dibenz [b,f]azepine-5-carboxamide]
Sirius red staining of lung (pulmonary fibrosis) (PiZ mice): statistically significant reduction | BiP levels [1]: did not affect | total protein synthesis or secretion (radioactivity in TCA precipitates) ([2]; HTO/Z cells): did not show any effects | synthesis of ATZ ([2]; pulse labeling 30 mins after 48 hours CBZ): did not affect | secretion of ATZ ([2]; pulse-chase, CBZ 30 μM): could not be attributed to enhanced secretion | half-time of disappearance of ATZ from the intracellular compartment ([2]; pulse-chase, CBZ 30 μM, 200 min in untreated cells): 130 min | collagen 1A level ([3]; not statistically significant): decreased | transforming growth factor b level ([3]; not statistically significant): decreased | smooth muscle actin level ([3]; reached statistical significance): decreased | wild-type AT levels [4]: did not affect

— US9511074B2, “Methods of treating disorders associated with protein polymerization” (UNIVERSITY OF PITTSBURGH—OF THE COMMONWEALTH SYSTEM OF …, priority 2009, dated 2016)
